Ten molecules from US8735414B2 (priority 2009, dated 2014) can be followed below.

Data set [1] has as its system bicistronic HCV replicon (replicon RNA, GenBank Accession No. AJ242654). Briefly: HCV Replicon Assay. The conditions noted are these: Hepatitis C virus, 72 h, read-out: Replicon IC50. In kind it is cell-based.

What is called IC50 is the midpoint of a concentration-inhibition curve. As a reminder, the melting point is the temperature, or range, at which the solid turns liquid.

Molecule `CCCS(=O)(=O)Nc1ccc(-c2c(C#N)c3ccc(Oc4ncccc4C#N)cc3n2C2CCC2)nc1` [compound 272, N-(6-{3-cyano-6-[(3-cyanopyridin-2-yl)oxy]-1-cyclobutyl-1H-indol-2-yl}pyridin-3-yl)propane-1-sulfonamide] showed a melting point of 199 to 201 °C. The IC50 in data set [1] is 500 to 2000 nM.
`CCNC(=O)c1c(-c2ccc(S(=O)(=O)N[C@@H](C)C(F)(F)F)cn2)n(C2CCCC2)c2cc(C)c(F)cc12` [compound 762, 1-cyclopentyl-N-ethyl-5-fluoro-6-methyl-2-(5-{[(2S)-1,1,1-trifluoropropan-2-yl]sulfamoyl}pyridin-2-yl)-1H-indole-3-carboxamide] showed a melting point of 160 to 162 °C. For the same molecule, the IC50 in data set [1] was below 500 nM.
As to `N#Cc1c(-c2ccc(S(=O)(=O)NC3(C(F)(F)F)CC3)cn2)n(C2CCC2)c2cc(OC(F)F)c(F)cc12` [compound 808, 6-[3-cyano-1-cyclobutyl-6-(difluoromethoxy)-5-fluoro-1H-indol-2-yl]-N-[1-(trifluoromethyl)cyclopropyl]pyridine-3-sulfonamide], the melting point lay within 169 to 171 °C. Also, in data set [1], the IC50 was below 500 nM.
For the molecule `Cc1nc(NS(=O)(=O)C(C)(C)C)ccc1-c1c(C(N)=O)c2cc(F)c(OC(F)F)cc2n1C(C)C` [compound 1095, 2-{6-[(tert-butylsulfonyl)amino]-2-methylpyridin-3-yl}-6-(difluoromethoxy)-5-fluoro-1-(propan-2-yl)-1H-indole-3-carboxamide], the melting point was 234 to 235 °C. For the same molecule, the IC50 in data set [1] fell in the range of 500 to 2000 nM.
The corresponding values for `CCc1cc2c(cc1F)c(C#N)c(-c1ccc(S(=O)(=O)N[C@@H](C)C(F)(F)F)cn1)n2-c1ccc(OC)cc1` [compound 1005, 6-[3-cyano-6-ethyl-5-fluoro-1-(4-methoxyphenyl)-1H-indol-2-yl]-N-[(2S)-1,1,1-trifluoropropan-2-yl]pyridine-3-sulfonamide] are 261 to 266 °C and below 500 nM.
With `C[C@H](NS(=O)(=O)c1ccc(-c2c(C#N)c3cc(F)c(C4CC4)cc3n2-c2ccccn2)nc1)C(F)(F)F` [compound 819, 6-[3-cyano-6-cyclopropyl-5-fluoro-1-(pyridin-2-yl)-1H-indol-2-yl]-N-[(2S)-1,1,1-trifluoropropan-2-yl]pyridine-3-sulfonamide], the melting point was 220 to 223 °C. Also, the IC50 in data set [1] was below 500 nM.
On to `N#Cc1c(-c2ccc(S(=O)(=O)NC(CF)CF)cn2)n(CC2CC2)c2cc(Cl)ccc12` [compound 62, 6-[6-chloro-3-cyano-1-(cyclopropylmethyl)-1H-indol-2-yl]-N-(1,3-difluoropropan-2-yl)pyridine-3-sulfonamide], for which the melting point fell in the range of 223 to 227 °C. Moreover, the IC50 in data set [1] is below 500 nM.
In turn, `CCc1cc2c(cc1F)c(C#N)c(-c1ccc(S(=O)(=O)N[C@H](C)C(F)(F)F)cn1)n2C1CCCC1` [compound 632, 6-(3-cyano-1-cyclopentyl-6-ethyl-5-fluoro-1H-indol-2-yl)-N-[(2R)-1,1,1-trifluoropropan-2-yl]pyridine-3-sulfonamide] returned a melting point of 205.5 to 206 °C. Also, the half-inhibitory concentration (IC50) in data set [1] was below 500 nM.
For `CNC(=O)c1c(-c2ccc(S(=O)(=O)NC(C)(C)C)cn2)n(C2CCCC2)c2cc(C)c(F)cc12` [compound 799, 2-[5-(tert-butylsulfamoyl)pyridin-2-yl]-1-cyclopentyl-5-fluoro-N,6-dimethyl-1H-indole-3-carboxamide], the melting point is 248 to 250 °C. Besides, the concentration for half-maximal inhibition (IC50) in data set [1] is below 500 nM.
For `CC(C)NS(=O)(=O)c1cnc(-c2c(C#N)c3ccc(CC(F)F)cc3n2C2CCCC2)nc1` [compound 598, 2-[3-cyano-1-cyclopentyl-6-(2,2-difluoroethyl)-1H-indol-2-yl]-N-(propan-2-yl)pyrimidine-5-sulfonamide] the same measures were 204 to 218 °C and below 500 nM.
